Test results as given in patent publication US12590097B2 (priority 2020, dated 2026).

Columns and labels:
in vitro = in vitro ADME; details: human plasma containing 5 mM MgCl2, 37° C., LC-MS/MS; read-out: T1/2 (h) Plasma (converted)
Experimental: (§1) To 1 mL of human plasma containing 5 mM MgCl2 was added 2 μL of a solution of 50 mM compound to be tested in DMSO, and the mixture was incubated at 37° C. 100 μL of sample was taken at different time points, into which 200 μL of methanol was added, and the mixture was centrifuged at 14000 rpm at 4° C. for 30 min. 100 μL of supernatant was taken, into which 100 μL of methanol was added, and the mixture was frozen at −20° C. for later use.
(§2) The content of the compound to be tested in plasma or liver microsome was determined by LC-MS/MS, and the half-life was calculated. Instruments: Prominence 20 A liquid chromatograph from Shimadzu, API 4000 Q-TRAP mass spectrometer from Applied Biosystems; mass spectrometry conditions: ESI negative ion detection; chromatographic column: Diamonsil C18 (100×4.6 mm, 5 μm) chromatographic column; column temperature: 40° C.; flow rate: 0.5 mL/min. Mobile phase A: methanol; mobile phase B: 5% aqueous methanol solution (containing 2 mM ammonium formate); flow rate: 0.5 mL/min; gradient elution as shown in the following table: […]

[1] = Evaluation of metabolic stability in human liver microsome (human liver S9 components); format: in vitro ADME; details: liver S9 components (headed liver microsome); human liver S9 components 4 mg/mL, pH 7.4, 37° C., LC-MS/MS; read-out: T1/2 (h) Liver microsome (converted)
Experimental: as §1, with “buffer” for “human plasma”, “MgCl2 and 50 mM K2HPO4 (pH 7.4)” for “MgCl2”, “DMSO, then human liver S9 components were added to reach 4 mg/mL,” for “DMSO,”, “300” for “200”, “rpm for 30 min” for “rpm”, “C.” for “C. for 30 min.”
as §2

[2] = Pharmacokinetic evaluation in beagle dogs; format: in vivo; details: for Cmax: male, dog, po, plasma, intragastric, II-1 5 mg/kg, II-6 5.13 mg/kg, I-5-B 5.27 mg/kg, read-out: Cmax(ng/ml) Prodrug prototype
Experimental: Male beagle dogs (7-8 months old, weighing 7-10 kg) were randomly divided into groups (2 beagle dogs per group) and weighed. The beagle dogs were fasted for 12 h before administration. The sample to be tested at a certain concentration was ground and suspended in 0.5% sodium carboxymethylcellulose solution, and II-1 (5 mg/kg), II-6 (5.13 mg/kg) or I-5-B (5.27 mg/kg) was administered intragastrically to the beagle dogs. Before administration and 0.5 h, 1 h, 2 h, 4 h, 6 h, 8 h, 10 h and 24 h after administration, 0.5 mL of blood was collected from the cephalic vein of forelimb separately, anticoagulated with sodium heparin, centrifuged to separate out the plasma, which was stored at −80° C. for determination.
50 μL of drug-containing plasma was taken, into which 50 μL of methanol and 100 μL of internal-standard acetaminophen methanol solution were added, and the mixture was vortexed for 1 min and centrifuged at 12000 rpm for 10 min at 4° C. The supernatant was taken and placed in an internal insert tube for quantitative analysis by LC-MS/MS (the method was the same as that in Example 7).

hepatitis B = details: ducks; disclosed in CN103804417A; cited from earlier work

Row | SMILES | half-life at 100 µM (in vitro) [h] | half-life at 100 µM [1] [h] | plasma concentration of the prodrug prototype (in words, versus I-5-B) ([2]; intragastric administration) | Cmax [2] [ng/mL] | antiviral effect on hepatitis B in vivo (in words) (hepatitis B) | prodrug prototype present in plasma (in words) [2] | transformation into the active form (in words) [2]
1 | C=C1[C@H](CO[P@@](=O)(N[C@@H](C)C(=O)OC)Oc2ccc(Cl)cc2)[C@@H](O)C[C@@H]1n1cnc2c(=O)[nH]c(N)nc21 [II-3, 2-amino-1,9-dihydro-9-[(1S,3R,4S)-4-hydroxy-3-((S)-((S)-1-methoxycarbonylethylamino-(4-chloro-phenyl)oxy-phosphoryl)-oxymethyl)-2-methylenecyclopentyl]-6H-purin-6-one] | 7.5 | 0.06 |  |  |  |  | 
2 | C=C1[C@H](CO[P@@](=O)(N[C@@H](C)C(=O)OC)Oc2ccccc2)[C@@H](O)C[C@@H]1n1cnc2c(=O)[nH]c(N)nc21 [II-1, 2-amino-1,9-dihydro-9-[(1S,3R,4S)-4-hydroxy-3-((S)-((S)-1-methoxycarbonylethylamino-phenoxy-phosphoryl)-oxymethyl)-2-methylenecyclopentyl]-6H-purin-6-one] | 15.3 | 0.27 | significantly lower than that of the I-5-B | 331 |  |  | 
3 | C=C1[C@H](CO[P@@](=O)(N[C@@H](C)C(=O)OC)Oc2ccc(OC)cc2)[C@@H](O)C[C@@H]1n1cnc2c(=O)[nH]c(N)nc21 [II-5, 2-amino-1,9-dihydro-9-[(1S,3R,4S)-4-hydroxy-3-((S)-((S)-1-methoxycarbonylethylamino-(4-methoxy-phenyl)oxy-phosphoryl)-oxymethyl)-2-methylenecyclopentyl]-6H-purin-6-one] | 4.9 | 0.03 |  |  |  |  | 
4 | C=C1[C@H](CO[P@@](=O)(N[C@@H](C)C(=O)OC(C)C)Oc2ccccc2)[C@@H](O)C[C@@H]1n1cnc2c(=O)[nH]c(N)nc21 [I-5-B, 2-amino-1,9-dihydro-9-[(1S,3R,4S)-4-hydroxy-3-((S)-((S)-1-isopropoxycarbonylethylamino-phenoxy-phosphoryl)-oxymethyl)-2-methylenecyclopentyl]-6H-purin-6-one, reference compound] | > 24 | 0.4 |  | 864 | good antiviral effect | high concentration | can not be completely transformed into the active form
5 | C=C1[C@H](CO[P@@](=O)(N[C@@H](C)C(=O)OC)Oc2ccc(F)cc2)[C@@H](O)C[C@@H]1n1cnc2c(=O)[nH]c(N)nc21 [II-2, 2-amino-1,9-dihydro-9-[(1S,3R,4S)-4-hydroxy-3-((S)-((S)-1-methoxycarbonylethylamino-(4-fluoro-phenyl)oxy-phosphoryl)-oxymethyl)-2-methylenecyclopentyl]-6H-purin-6-one] | 10.6 | 0.13 |  |  |  |  | 
6 | C=C1[C@H](CO[P@@](=O)(N[C@@H](C)C(=O)OC)Oc2ccc(C)cc2)[C@@H](O)C[C@@H]1n1cnc2c(=O)[nH]c(N)nc21 [II-6, 2-amino-1,9-dihydro-9-[(1S,3R,4S)-4-hydroxy-3-((S)-((S)-1-methoxycarbonylethylamino-(4-methyl-phenyl)oxy-phosphoryl)-oxymethyl)-2-methylenecyclopentyl]-6H-purin-6-one] | 10.8 | 0.19 |  | 633 |  |  | 
7 | C=C1[C@H](CO[P@@](=O)(N[C@@H](C)C(=O)OC)Oc2ccc(Br)cc2)[C@@H](O)C[C@@H]1n1cnc2c(=O)[nH]c(N)nc21 [II-4, 2-amino-1,9-dihydro-9-[(1S,3R,4S)-4-hydroxy-3-((S)-((S)-1-methoxycarbonylethylamino-(4-bromo-phenyl)oxy-phosphoryl)-oxymethyl)-2-methylenecyclopentyl]-6H-purin-6-one] | 6.2 | 0.06 |  |  |  |  | 
